According to PMC9386018, “A lymphatic-absorbed multi-targeted kinase inhibitor for myelofibrosis therapy” (Nature Communications, 2022):
Several values for one entry are separate records, joined by “and”; a condition that tells them apart may be missing. Equal values may be shown once. One block for each molecule: values may come before it.

Assays:
[1] = Compound quantitation in blood and mesenteric lymph nodes; type: in vivo, mouse; details: mice; for uptake in the mesenteric lymph nodes compared to LP5-37: 4 h after oral 100 mg kg^−1
Procedure: Whole blood and mesenteric lymph nodes were collected either 30 min or 4 h following compound administration and stored at −20 °C until future processing and analysis by the University of Michigan Pharmacokinetics Core as above, or as outlined below, to determine compound concentrations in each tissue. […] Data was generated from n ≥ 4 individual animals per compound per study group or dose.
Briefly, acetonitrile was added to a final concentration of 60–80% to bone marrow, whole blood, plasma, lymphatic fluid, lymphatic proteo-lipid sub-fractions, or mesenteric lymph node samples for compound extraction. Extraction was performed by shaking and/or bead rupture using a Precellys Evolution tissue homogenizer (Bertin Technologies SAS). […] Optimization of MS and MS/MS parameters for MRM quantitation and maximum sensitivity of individual compounds was performed using SCIEX Analyst software (AB Sciex). […] All LC-MS/MS acquisitions were performed with an independent standard curve for each group of analytes and for each individual run. All solvents utilized were of Optima LC-MS Grade (Fisher Scientific). Data was generated from n ≥ 2 individual animals per compound per study condition or dose.

[2] = female, CD-1, mouse, in vivo, po, 0.167 h
Procedure: (§1) Samples were centrifuged at 15,000 rpm for 10 min, then blood plasma was collected from the upper layer and frozen at −80 °C until analysis. […] Sample processing, chromatographic separation, MS, and MS/MS parameters used for analysis were determined by the core. […] Standard curves for peak area ratio of compound to internal standard (Astd/AIstd) vs. compound concentration were used to determine sample analyte concentrations through linear regression with a weighting average of 1/X^2. […] All pharmacokinetic parameters were estimated using non-compartmental analysis with Phoenix/WINONLIN, and provided by the core along with calculated sample analyte concentrations. Data was generated from n ≥ 3 individual animals sampled per time point per compound for each method of dosing.

in vivo = details: female, CD-1, mouse
Procedure: as §1

MAPK signaling = details: cited from earlier work
SET-2 cells = assay: SET-2 proliferation assay (CellTiter-Fluor); type: cell-based, human; details: 72 h, replicates (Fig. 2d)
Procedure: Viable cells were counted by CellTiter-Fluor Assay (Promega) according to manufacturer’s protocol, and all fluorescence values were corrected by a no-cell control. […] Caspase activity was measured by Caspase-Glo 3/7 assay (Promega) according to the manufacturer’s protocol, and all luminescence values were corrected by a no-cell control. Dose response proliferation and Caspase activation data was normalized to vehicle treated control cells and analyzed by non-linear regression for determination of IC50 values. Data was generated from n = 3 independent experiments performed in replicate.

[3] = Pharmacokinetic analysis of plasma after intravenous and oral dosing
Procedure: as §1

SMILES: COCCOCCOCCOCCONC(=O)c1ccc(F)c(F)c1Nc1ccc(I)cc1F [LP5-38]
uptake in the mesenteric lymph nodes compared to LP5-37 [1]: reduced uptake

SMILES: O=C(NOC[C@H](O)CO)c1ccc(F)c(F)c1Nc1ccc(I)cc1F [PD0325901]
plasma concentration with significant pharmacologic activity against MAPK signaling (MAPK signaling): > 50 ng mL^−1

SMILES: O=C(NOCCO)c1ccc(F)c(F)c1Nc1ccc(I)cc1F [PD0316684, reference compound]
Growth (%) (SET-2 cells; 0.0390625 µM): 95.6027% and 82.3855% and 49.4653% and 99.6209% and 66.699% and 96.6844% | Growth (%) (SET-2 cells; 0.078125 µM): 101.495% and 98.0639% and 103.106% and 103.604% and 92.0053% and 98.1242% | Growth (%) (SET-2 cells; 0.15625 µM): 100.075% and 88.7042% and 52.4529% and 86.403% and 62.7397% and 78.9368% | Growth (%) (SET-2 cells; 0.3125 µM): 97.1172% and 98.6318% and 60.2388% and 84.8639% and 78.1339% and 80.2658% | Growth (%) (SET-2 cells; 0.625 µM): 88.0297% and 91.2009% and 71.3744% and 84.6376% and 79.2414% and 81.5948% | Growth (%) (SET-2 cells; 5 µM): 71.6887% and 74.5167% and 60.9631% and 39.5066% and 70.9074% and 51.4432% | Growth (%) (SET-2 cells; 10 µM): 49.6443% and 48.6858% and 23.1653% and 17.5522% and 22.5652% and 22.2053% | Growth (%) (SET-2 cells; 20 µM): 15.211% and 15.14% and -3.18% and -3.361% and -4.513% and -3.5163% | uptake in the mesenteric lymph nodes compared to LP5-37 [1]: reduced uptake | concentration at 0.167 h ([3]; female, CD-1, mouse, plasma, iv, 15 mg kg^−1, Concentration (ng/mL), mice, single i.v. LP-182 15 mg kg^−1, 0.167 h, analyte = label, individual animals): 771 ng/mL | concentration at 1 h ([3]; female, CD-1, mouse, plasma, iv, 15 mg kg^−1, Concentration (ng/mL), mice, single i.v. LP-182 15 mg kg^−1, 1 h, analyte = label, individual animals): 95.3 ng/mL | concentration at 2 h ([3]; female, CD-1, mouse, plasma, iv, 15 mg kg^−1, Concentration (ng/mL), mice, single i.v. LP-182 15 mg kg^−1, 2 h, analyte = label, individual animals): 58.1 ng/mL | concentration at 4 h ([3]; female, CD-1, mouse, plasma, iv, 15 mg kg^−1, Concentration (ng/mL), mice, single i.v. LP-182 15 mg kg^−1, 4 h, analyte = label, individual animals): 18.6 ng/mL | concentration at 7 h ([3]; female, CD-1, mouse, plasma, iv, 15 mg kg^−1, Concentration (ng/mL), mice, single i.v. LP-182 15 mg kg^−1, 7 h, analyte = label, individual animals): 5.74 ng/mL | concentration at 16 h ([3]; female, CD-1, mouse, plasma, iv, 15 mg kg^−1, Concentration (ng/mL), mice, single i.v. LP-182 15 mg kg^−1, 16 h, analyte = label, individual animals): 3.59 ng/mL | concentration at 0.167 h ([3]; female, CD-1, mouse, plasma, iv, 15 mg kg^−1, Concentration, Figure 6c, Time 0.167 h, individual replicates): 89.6 ng/mL | concentration at 1 h ([3]; female, CD-1, mouse, plasma, iv, 15 mg kg^−1, Concentration, Figure 6c, Time 1 h, individual replicates): 39.4 ng/mL | concentration at 2 h ([3]; female, CD-1, mouse, plasma, iv, 15 mg kg^−1, Concentration, Figure 6c, Time 2 h, individual replicates): 18.7 ng/mL | concentration at 0.167 h ([3]; female, CD-1, mouse, plasma, iv, 15 mg kg^−1, Concentration, Figure 6d, Time 0.167 h, individual replicates): 234 ng/mL | concentration at 0.5 h ([3]; female, CD-1, mouse, plasma, iv, 15 mg kg^−1, Concentration, Figure 6d, Time 0.5 h, individual replicates): 241 ng/mL | concentration at 1 h ([3]; female, CD-1, mouse, plasma, iv, 15 mg kg^−1, Concentration, Figure 6d, Time 1 h, individual replicates): 112 ng/mL | concentration at 2 h ([3]; female, CD-1, mouse, plasma, iv, 15 mg kg^−1, Concentration, Figure 6d, Time 2 h, individual replicates): 62.8 ng/mL | concentration at 4 h ([3]; female, CD-1, mouse, plasma, iv, 15 mg kg^−1, Concentration, Figure 6d, Time 4 h, individual replicates): 39.4 ng/mL | concentration at 7 h ([3]; female, CD-1, mouse, plasma, iv, 15 mg kg^−1, Concentration, Figure 6d, Time 7 h, individual replicates): 35.3 ng/mL | concentration at 24 h ([3]; female, CD-1, mouse, plasma, iv, 15 mg kg^−1, Concentration, Figure 6d, Time 24 h, individual replicates): 3.46 ng/mL | concentration at 0.5 h ([3]; female, CD-1, mouse, plasma, po, 200 mg kg^−1, Concentration, Figure 6c, Time 0.5 h, individual replicates): 644 ng/mL | concentration at 7 h ([3]; female, CD-1, mouse, plasma, po, 200 mg kg^−1, Concentration, Figure 6c, Time 7 h, individual replicates): 260 ng/mL | concentration at 0.5 h ([3]; female, CD-1, mouse, plasma, po, 200 mg kg^−1, Concentration, Figure 6d, Time 0.5 h, individual replicates): 254 ng/mL | concentration at 1 h ([3]; female, CD-1, mouse, plasma, po, 200 mg kg^−1, Concentration, Figure 6d, Time 1 h, individual replicates): 156 ng/mL | concentration at 7 h ([3]; female, CD-1, mouse, plasma, po, 200 mg kg^−1, Concentration, Figure 6d, Time 7 h, individual replicates): 201 ng/mL | concentration at […] ([3]; female, CD-1, mouse, plasma, po, 200 mg kg^−1, Concentration, Figure 6d, Time […], individual replicates): 131 ng/mL | concentration at 0.167 h ([3]; female, CD-1, mouse, plasma, po, 400 mg kg^−1, Concentration (ng/mL), mice, single p.o. LP-182 400 mg kg^−1, 0.167 h, analyte = label, individual animals): 175 ng/mL | concentration at 0.5 h ([3]; female, CD-1, mouse, plasma, po, 400 mg kg^−1, Concentration (ng/mL), mice, single p.o. LP-182 400 mg kg^−1, 0.5 h, analyte = label, individual animals): 399 ng/mL | concentration at 1 h ([3]; female, CD-1, mouse, plasma, po, 400 mg kg^−1, Concentration (ng/mL), mice, single p.o. LP-182 400 mg kg^−1, 1 h, analyte = label, individual animals): 500 ng/mL | concentration at 4 h ([3]; female, CD-1, mouse, plasma, po, 400 mg kg^−1, Concentration (ng/mL), mice, single p.o. LP-182 400 mg kg^−1, 4 h, analyte = label, individual animals): 76.7 ng/mL | concentration at 16 h ([3]; female, CD-1, mouse, plasma, po, 400 mg kg^−1, Concentration (ng/mL), mice, single p.o. LP-182 400 mg kg^−1, 16 h, analyte = label, individual animals): 68.3 ng/mL | concentration at 24 h ([3]; female, CD-1, mouse, plasma, po, 400 mg kg^−1, Concentration (ng/mL), mice, single p.o. LP-182 400 mg kg^−1, 24 h, analyte = label, individual animals): 78.6 ng/mL | plasma level maintained over 24 h ([3]; mice, after oral LP-182 400 mg kg^−1, analyte = label): ~100 ng/mL

The remaining lines, values ahead:

Concentration [2]: 704 ng/mL | concentration at 0.167 h (in vivo; iv): 3300 ng/mL | concentration at 0.5 h (in vivo; iv): 2510 ng/mL | concentration at 1 h (in vivo; iv): 1710 ng/mL | concentration at 2 h (in vivo; iv): 744 ng/mL | concentration at 24 h (in vivo; iv): 1 ng/mL | concentration at 0.167 h (in vivo; po): 626 ng/mL | concentration at 0.5 h (in vivo; po): 3700 ng/mL | concentration at 1 h (in vivo; po): 3440 ng/mL | concentration at 2 h (in vivo; po): 4880 ng/mL | concentration at 7 h (in vivo; po): 3930 ng/mL | concentration at 16 h (in vivo; po): 4430 ng/mL
SMILES: COc1ccc(-c2ccc3c(N4CCOC[C@@H]4C)nc(N4CCOC[C@@H]4C)nc3n2)cc1CO [AZD8055]

mesenteric lymph node levels versus blood ([1]; 4 h after oral 400 mg kg^−1): significantly higher than in blood
SMILES: O=C(NOCCOCCOCCOCCONC(=O)c1ccc(F)c(F)c1Nc1ccc(I)cc1F)c1ccc(F)c(F)c1Nc1ccc(I)cc1F [LP5-37]
